From ChEMBL document CHEMBL4422644, “Synthesis and evaluation of α-aminoacyl amides as antitubercular agents effective on drug resistant tuberculosis” (Eur J Med Chem, 2019)
In brackets after ≈: the same amount, converted by molar mass.

Columns and labels:
Escherichia coli = assay: Antibacterial activity against Escherichia coli ATCC 25922 after 24 hrs; format: functional; conditions: ATCC 25922, 24 h
[1] = tested on: Mycobacterium tuberculosis; assay: Antitubercular activity against Mycobacterium tuberculosis H37Rv after 7 days by alamar blue assay; format: functional; conditions: 168 h
MCF7 = assay: Cytotoxicity against human MCF7 cells after 24 hrs by MTT assay; format: functional, cell-based; conditions: MCF7, 24 h
[2] = Cytotoxicity against […] B16 cells after 24 hrs by MTT assay; format: functional, cell-based; conditions: B16, 24 h
DU-145 = assay: Cytotoxicity against human DU145 cells after 24 hrs by MTT assay; format: functional, cell-based; conditions: DU-145, 24 h
Acinetobacter baumannii = assay: Antibacterial activity against Acinetobacter baumannii ATCC BAA-1605 after 24 hrs; format: functional; conditions: ATCC BAA-1605, 24 h
Mycobacteroides chelonae = assay: Antibacterial activity against Mycobacterium chelonae after 7 days by alamar blue assay; format: functional; conditions: 168 h
HeLa = assay: Cytotoxicity against human HeLa cells after 24 hrs by MTT assay; format: functional, cell-based
[3] = tested on: Mycolicibacterium fortuitum; assay: Antibacterial activity against Mycobacterium fortuitum after 7 days by alamar blue assay; format: functional; conditions: 168 h
[4] = Cytotoxicity against HEK cells after 24 hrs by MTT assay; format: cell-based; conditions: Homo sapiens, HEK293, 24 h
Staphylococcus aureus = assay: Antibacterial activity against Staphylococcus aureus ATCC 29213 after 24 hrs; format: functional; conditions: ATCC 29213, 24 h
Klebsiella pneumoniae = assay: Antibacterial activity against Klebsiella pneumoniae ATCC BAA-1705 after 24 hrs; format: functional; conditions: ATCC BAA-1705, 24 h
CHO-K1 = assay: Cytotoxicity against CHOK1 cells after 24 hrs by MTT assay; format: cell-based; conditions: Cricetulus griseus, CHO-K1, 24 h
A549 = assay: Cytotoxicity against human A549 cells after 24 hrs by MTT assay; format: functional, cell-based; conditions: A549, 24 h
[5] = tested on: Mycobacteroides abscessus; assay: Antibacterial activity against Mycobacterium abscessus after 7 days by alamar blue assay; format: functional; conditions: 168 h
[6] = Selectivity index, ratio of IC50 for CHOK1 cells to MIC for Mycobacterium tuberculosis H37Rv; format: toxicity; conditions: hamster, read-out: Selectivity Index
HepG2 = assay: Cytotoxicity against human HepG2 cells after 24 hrs by MTT assay; format: functional, cell-based; conditions: HepG2, 24 h
Pseudomonas aeruginosa = assay: Antibacterial activity against Pseudomonas aeruginosa ATCC 27853 after 24 hrs; format: functional; conditions: ATCC 27853, 24 h

SMILES | MIC (Escherichia coli) [µM] | MIC [1] [µM] | IC50 (MCF7) [µM] | IC50 [2] [µM] | IC50 (DU-145) [µM] | MIC (Acinetobacter baumannii) [µM] | MIC (Mycobacteroides chelonae) [µM] | IC50 (HeLa) [µM] | MIC [3] [µM] | IC50 [4] [µM] | MIC (Staphylococcus aureus) [µM] | MIC (Klebsiella pneumoniae) [µM] | IC50 (CHO-K1) [µM] | IC50 (A549) [µM] | MIC [5] [µM] | selectivity ratio [6] | IC50 (HepG2) [µM] | MIC (Pseudomonas aeruginosa) [µM]
Cc1ccc(N(C(=O)c2ccc[nH]2)C(C(=O)NC2CCCCC2)c2cccnc2)cc1 (stereo not drawn) | > 50 | 12.5 (≈ 5.21 µg/mL) | 5.61 | 18.4 | 15.5 | > 50 | > 50 | 12 | > 50 | 120 | > 50 | > 50 | 135 | 15.2 | > 50 | 10.7 | 11.5 | > 50
Cc1cccc(N(C(=O)c2ccncc2)C(C(=O)NC2CCCCC2)c2ccccc2)c1C (stereo not drawn) | > 50 | 6.25 (≈ 2.76 µg/mL) | 6.41 | 12.2 | 11.3 | > 50 | > 50 | 13.8 | > 50 | 38 | > 50 | > 50 | 81.4 | 12.9 | > 50 | 13 | 6.99 | > 50
Cc1cccc(N(C(=O)c2cccs2)C(C(=O)NC2CCCCC2)c2ccccc2)c1C (stereo not drawn) | > 50 | 3.12 (≈ 1.39 µg/mL) | 16.9 | 14.3 | 9.14 | > 50 | > 50 | 12.7 | > 50 | 22.9 | > 50 | > 50 | 38.2 | 17.9 | > 50 | 12.2 | 9.63 | > 50
Cc1nc(C)c(C(=O)N(c2cccc(C)c2C)C(C(=O)NC2CCCCC2)c2ccc(Cl)cc2)s1 (stereo not drawn) | > 50 | 3.12 (≈ 1.59 µg/mL) | 4.12 | 21 | 8.53 | > 50 | > 50 | 13.9 | > 50 | 90.5 | > 50 | > 50 | 11.4 | 9.2 | > 50 | 3.5 | 6.15 | > 50
Cc1ccc(N(C(=O)c2sc(C)nc2C)C(C(=O)NC2CCCCC2)c2ccccc2)cc1 (stereo not drawn) | > 50 | 1.56 (≈ 0.72 µg/mL) | 3.69 | 13.9 | 14 | > 50 | > 50 | 10.7 | > 50 | 37 | > 50 | > 50 | 17.9 | 1.48 | > 50 | 10.9 | 11.8 | > 50
Cc1cccc(N(C(=O)c2c(C)noc2C)C(C(=O)NC2CCCCC2)c2cccnc2)c1C (stereo not drawn) | > 50 | 6.25 (≈ 2.88 µg/mL) | 6.62 | 32.7 | 12 | > 50 | > 50 | 14.1 | > 50 | 76.9 | > 50 | > 50 | 137 | 12.8 | > 50 | 21.7 | 11.8 | > 50
